Data: patent US6790645B2, “Oxidation of a cyclohexanone derivative using a brevibacterium cyclohexanone monooxygenase” (E. I. du Pont de Nemours and Company, priority 1999, dated 2004)

Tests used:
[1] = test system: Brevibacterium monooxygenase 1 (ORF 1.3); assay: Spectrophotometric monooxygenase assay (NADPH oxidation at 340 nm), substrate specificity for cyclic ketones, monooxygenase 1; format: biochemical, Brevibacterium sp HCU; conditions: NADPH 0.3 mM, pH7, 30° C., activities below 2.0 could reflect contaminants
Procedure: (§1) The cyclohexanone monooxygenase activity of each overexpressed enzyme was assayed spectrophotometrically at 340 nm by monitoring the oxidation of NADPH. In a spectrophotometer cuvette containing 50 mM Tris-HCl, 50 mM K Acetate pH7 at 30° C. NADPH 0.3 mM and 20-50 μg of homogenous monooxygenase the reaction was initiated by the addition of 1 mM of cyclohexanone. Substrate specificity of each enzyme was tested with other cyclic ketones added at 0.1 or 0.5 mM.
(§2) Expression of the His6-tagged proteins was done by growing the cells carrying the expression plasmids in 1 l of Luria-Bertani broth (Miller 1972) containing Ampicillin (100 μg/ml) and tetracyclin (10 μg/ml) at 28° C. Riboflavin (1 μg/ml) was also added to the medium since both monooxygenases are flavoproteins. When the absortion reached 0.5 at 600 nm, 1 mM isopropy-thio-b-galactoside (IPTG) was added to the culture. Cells were harvested 1.5 hr later, resuspended in 2 ml of 300 mM NaCl 5% glycerol 20 mM Tris-HCl pH 8.0 (Buffer A) containing 10 mM EDTA and 100 μg lysozyme and disrupted by three freeze/thaw cycles. Nucleic acids were digested by addition of MgCl2 (20 mM) RNAseA and DNAse I (10 μg each). The particulate fraction was removed by centrifugation at 14,000 RPM and the supernatant was mixed for 1 hr at 4° C. with 100 μl of a metal chelation agarose (Ni-NTA Superflow Qiagen, Valencia, Calif.) saturated with Ni(II) and equilibrated Buffer A containing 5 mM imidazole. The resin was washed bathchwise with 10 ml each of Buffer A containing 5, 10, 15, 20, 40, 80, 150 and 300 mM respectively. The bound proteins were eluted between 80 and 150 mM imidazole. Eluted proteins were concentrated by ultrafiltration with a Centricon device (cut off 10,000 Da, Amicon) and the buffer replaced by Buffer A. Homogeneity of the overexpressed proteins is shown in FIG. 3, which show a gel electrophoresis separation of proteins from control E. coli (lane 1), E. coli expressing ORF 1.3 (lane 2) and E. coli expressing ORF 2.4 (lane 3).
(§3) Each monooxygenase oxidized cyclohexanone as measured spectrophoto-metrically by monitoring the oxidation of NADPH at 340 nm. No activity was observed when NADPH was replaced by NADH. The product of the cyclohexanone oxidation was confirmed to be caprolactone by GC-MS analysis. Monooxygenase 1 and 2 have different substrate specificity relative to the number of carbon atoms, the oxidation or the substitution of the ring.

[2] = test system: Brevibacterium monooxygenase 2 (ORF 2.4); assay: Spectrophotometric monooxygenase assay (NADPH oxidation at 340 nm), substrate specificity for cyclic ketones, monooxygenase 2; format: biochemical, Brevibacterium sp HCU; conditions: NADPH 0.3 mM, pH7, 30° C., activities below 2.0 could reflect contaminants
Procedure: as §1, §2, §3

[3] = test system: E. coli strains carrying plasmids pPCB1 and pPCB2 that express the monooxygenase ORF 1.3 and ORF 2.4; assay: Conversion of cyclohexanone into caprolactone by cell suspensions, GC-MS; format: cell-based; conditions: 100 ppm cyclohexanone, M9 medium with 0.2% glucose, IPTG-induced cells (FIG. 5)
Procedure: Confirmation of the oxidation of cyclohexanone into caprolactone was determined by GC-Mass Spectrometry on a HP 5890 Gas Chromatograph with HP 5971 mass selective detector equipped with a HP-1 capillary column (Hewlett Packard). Prior to analysis, samples were acidified to pH 3 by HCl, extracted by dichloromethane three times, dried with MgSO4 and filtered.
Twenty ml cultures of E. coli strains carrying plasmids pPCB1 and pPCB2 that express the monooxygenase ORF 1.3 and ORF 2.4 respectively were grown at 30° C. in LB medium containing Ampicillin (100 μg/ml) and tetracyclin (10 μg/ml). When the absorbance reached 0.1 at 600 nm, 1 mM IPTG was added to the culture to induce the monooxygenases. After 1 hr, the cultures were chilled and washed twice with M9 mineral medium (Sambrook, J., Fritsch, E. F. and Maniatis, T. Molecular Cloning: A Laboratory Manual, Second Edition, Cold Spring Harbor Laboratory Press, Cold Spring Harbor (1989)) and resuspended in 2 ml of the same medium containing 0.2% glucose and 100 ppm of cyclohexanone. After one hr the cells were removed from the culture by centrifugation and supernatant was analyzed by GC-MS as described in the General Methods. The GC-MS analysis indicated the disappearance of cyclohexanone and the appearance of caprolactone. […]

Compound: O=C1CCCCCCC1 [cyclooctanone]
- Mono 1 rate ([1]; substrate 0.1 mM): 0.9 min⁻¹
- Mono 1 rate ([1]; substrate 0.5 mM): 0.4 min⁻¹
- Mono 2 rate ([2]; substrate 0.1 mM): 1.3 min⁻¹
- Mono 2 rate ([2]; substrate 0.5 mM): 1.3 min⁻¹

Compound: O=C1CCC1 [cyclobutanone]
- Mono 1 rate ([1]; substrate 0.1 mM): 235 min⁻¹
- Mono 1 rate ([1]; substrate 0.5 mM): 171 min⁻¹
- Mono 2 rate ([2]; substrate 0.1 mM): 92 min⁻¹
- Mono 2 rate ([2]; substrate 0.5 mM): 96 min⁻¹

Compound: O=C1CCCCCC1 [cycloheptanone]
- Mono 1 rate ([1]; substrate 0.1 mM): 4.5 min⁻¹
- Mono 1 rate ([1]; substrate 0.5 mM): 18 min⁻¹
- Mono 2 rate ([2]; substrate 0.1 mM): 3.9 min⁻¹
- Mono 2 rate ([2]; substrate 0.5 mM): 8.6 min⁻¹

Compound: O=C1CCCC(=O)C1 [1,3-cyclohexanedione]
- Mono 1 rate ([1]; substrate 0.1 mM): 0.3 min⁻¹
- Mono 1 rate ([1]; substrate 0.5 mM): 1.2 min⁻¹
- Mono 2 rate ([2]; substrate 0.1 mM): 18 min⁻¹
- Mono 2 rate ([2]; substrate 0.5 mM): 60 min⁻¹

Compound: CC1CCCCC1=O (centres unmarked) [2-methylcyclohexanone]
- Mono 1 rate ([1]; substrate 0.1 mM): 250 min⁻¹
- Mono 1 rate ([1]; substrate 0.5 mM): 260 min⁻¹
- Mono 2 rate ([2]; substrate 0.1 mM): 37 min⁻¹
- Mono 2 rate ([2]; substrate 0.5 mM): 97 min⁻¹

Compound: O=C1CCC(=O)CC1 [1,4-cyclohexanedione]
- Mono 1 rate ([1]; substrate 0.1 mM): 130 min⁻¹
- Mono 1 rate ([1]; substrate 0.5 mM): 210 min⁻¹
- Mono 2 rate ([2]; substrate 0.1 mM): 53 min⁻¹
- Mono 2 rate ([2]; substrate 0.5 mM): 88 min⁻¹

Compound: O=C1CCCCC1=O [1,2-cyclohexanedione]
- Mono 1 rate ([1]; substrate 0.1 mM): 9 min⁻¹
- Mono 1 rate ([1]; substrate 0.5 mM): 52 min⁻¹
- Mono 2 rate ([2]; substrate 0.1 mM): 7.6 min⁻¹
- Mono 2 rate ([2]; substrate 0.5 mM): 34 min⁻¹

Compound: O=C1CCCC1 [cyclopentanone]
- Mono 1 rate ([1]; substrate 0.1 mM): 1.2 min⁻¹
- Mono 1 rate ([1]; substrate 0.5 mM): 7.0 min⁻¹
- Mono 2 rate ([2]; substrate 0.1 mM): 90 min⁻¹
- Mono 2 rate ([2]; substrate 0.5 mM): 120 min⁻¹

Compound: O=C1CCCCCCCCCC1 [cycloundecanone]
- Mono 1 rate ([1]; substrate 0.1 mM): 1.2 min⁻¹
- Mono 1 rate ([1]; substrate 0.5 mM): 1.4 min⁻¹
- Mono 2 rate ([2]; substrate 0.1 mM): 0.6 min⁻¹
- Mono 2 rate ([2]; substrate 0.5 mM): 0.9 min⁻¹

Compound: CC1CCCC1=O (centres unmarked) [2-methylcyclopentanone]
- Mono 1 rate ([1]; substrate 0.1 mM): 40 min⁻¹
- Mono 1 rate ([1]; substrate 0.5 mM): 110 min⁻¹
- Mono 2 rate ([2]; substrate 0.1 mM): 120 min⁻¹
- Mono 2 rate ([2]; substrate 0.5 mM): 110 min⁻¹

Compound: O=C1CCCCC1C1=CCCCC1 (centres unmarked) [2-(cyclohex-1-enyl)cyclohexanone]
- Mono 1 rate ([1]; substrate 0.1 mM): 160 min⁻¹
- Mono 1 rate ([1]; substrate 0.5 mM): 260 min⁻¹
- Mono 2 rate ([2]; substrate 0.5 mM): 2.4 min⁻¹

Compound: O=C1CCCCC1 [cyclohexanone]
- Mono 1 rate ([1]; substrate 0.1 mM): 160 min⁻¹
- Mono 1 rate ([1]; substrate 0.5 mM): 290 min⁻¹
- Mono 2 rate ([2]; substrate 0.1 mM): 100 min⁻¹
- Mono 2 rate ([2]; substrate 0.5 mM): 100 min⁻¹
- time until all cyclohexanone was oxidized [3]: about 75 min

Compound: O=C1CCCCCCCCCCC1 [cyclododecanone]
- Mono 1 rate ([1]; substrate 0.1 mM): 1 min⁻¹
- Mono 1 rate ([1]; substrate 0.5 mM): 0.9 min⁻¹
- Mono 2 rate ([2]; substrate 0.1 mM): 1.2 min⁻¹
- Mono 2 rate ([2]; substrate 0.5 mM): 1.8 min⁻¹

Compound: O=C1C=CCCC1 [cyclohex-2-ene-1-one]
- Mono 1 rate ([1]; substrate 0.1 mM): 2.3 min⁻¹
- Mono 1 rate ([1]; substrate 0.5 mM): 1.9 min⁻¹
- Mono 2 rate ([2]; substrate 0.1 mM): 64 min⁻¹
- Mono 2 rate ([2]; substrate 0.5 mM): 80 min⁻¹

Compound: O=C1CCCCCCCCC1 [cyclodecanone]
- Mono 1 rate ([1]; substrate 0.5 mM): 1 min⁻¹
- Mono 2 rate ([2]; substrate 0.1 mM): 1.8 min⁻¹
- Mono 2 rate ([2]; substrate 0.5 mM): 1.2 min⁻¹
